Assay results reported in US20200131196A1 (Mount Tam Therapeutics, Inc., priority 2017, published 2020).
Where two headings read alike, the source gives them in different places.

How the values were obtained:
SW684 = experiment: OncoPanel cell proliferation assay, SW684; format: cell-based, human
Experimental: (§1) Cells were seeded into 384-well plates and incubated in a humidified atmosphere of 5% CO2 at 37° C. Compounds were added the day following cell seeding. At the same time, a time zero untreated cell plate was generated. After a 3-day incubation period, cells were fixed and stained to allow fluorescence imaging of nuclei. Compounds (1 mM stock solutions) were serially diluted in half-log steps from the highest test concentration ([…]), and assayed over 10 concentrations with a maximum assay concentration of 0.1% DMSO. Automated fluorescence microscopy was carried out using a Molecular Devices ImageXpress Micro XL high-content imager, and images were collected with a 4× objective. 16-bit TIFF images were acquired and analyzed with MetaXpress 5.1.0.41 software.
(§2) Cell proliferation was measured by the fluorescence intensity of an incorporated nuclear dye. The output is referred to as the relative cell count, where the measured nuclear intensity is transformed to percent of control (POC) using the following formula: […]
(§3) Cellular response parameters were calculated using nonlinear regression to a sigmoidal single-site dose response model:
GI50 is the concentration needed to reduce the observed growth by half (midway between the curve maximum and the time zero value). […] In rare instances, values <0 or >10 may be observed. […] Curve-fitting, calculations, and report generation was performed using a custom data reduction engine and MathIQ based software (AIM).

MES-SA = experiment: OncoPanel cell proliferation assay, MES-SA; format: cell-based, human
Experimental: as §1, with “Cells were grown in RPMI 1640, 10% FBS, 2 mM L-alanyl-L-glutamine, 1 mM Na pyruvate, or a special medium. Cells” for “Cells”
as §2, §3
(§4) EC50 is the test compound concentration at the curve inflection point or half the effective response (parameter C of the fitted curve solution). GI50 is the concentration needed to reduce the observed growth by half (midway between the curve maximum and the time zero value). “Cell Count Activity Area” is an estimate of the integrated area above the curve (Barretina, et al. The Cancer Cell Line Encyclopedia enables predictive modelling of anticancer drug sensitivity. Nature 483: 603-607). […] In rare instances, values <0 or >10 may be observed. […] Curve-fitting, calculations, and report generation was performed using a custom data reduction engine and MathIQ based software (AIM).

SK-N-AS = experiment: OncoPanel cell proliferation assay, SK-N-AS; format: cell-based, human
Experimental: as §1, with “Cells were grown in RPMI 1640, 10% FBS, 2 mM L-alanyl-L-glutamine, 1 mM Na pyruvate, or a special medium. Cells” for “Cells”
as §2, §3, §4

OVCAR3 = experiment: OncoPanel cell proliferation assay, OVCAR3
Experimental: Cells were seeded into 384-well plates and incubated in a humidified atmosphere of 5% CO2 at 37° C. Compounds were added the day following cell seeding. At the same time, a time zero untreated cell plate was generated. After a 3-day incubation period, cells were fixed and stained to allow fluorescence imaging of nuclei. Compounds (1 mM stock solutions) were serially diluted in half-log steps from the highest test concentration (1 micromol), and assayed over 10 concentrations with a maximum assay concentration of 0.1% DMSO. Automated fluorescence microscopy was carried out using a Molecular Devices ImageXpress Micro XL high-content imager, and images were collected with a 4× objective. 16-bit TIFF images were acquired and analyzed with MetaXpress 5.1.0.41 software.

RL95-2 = experiment: OncoPanel cell proliferation assay, RL95-2; format: cell-based, human
Experimental: as §1, with “Cells were grown in RPMI 1640, 10% FBS, 2 mM L-alanyl-L-glutamine, 1 mM Na pyruvate, or a special medium. Cells” for “Cells”
as §2, §3, §4

CEM-C1 = experiment: OncoPanel cell proliferation assay, CEM-C1; format: cell-based, human
Experimental: as §1, with “Cells were grown in RPMI 1640, 10% FBS, 2 mM L-alanyl-L-glutamine, 1 mM Na pyruvate, or a special medium. Cells” for “Cells”
as §2, §3, §4

[1] = Homo sapiens, read-out: Cell Count EC50
[2] = Homo sapiens, read-out: Cell Count GI50
[3] = Homo sapiens, read-out: Cell Count IC50

CO[C@H]1C[C@@H]2CC[C@@H](C)[C@@](O)(O2)C(=O)C(=O)N2CCCC[C@H]2C(=O)O[C@H]([C@H](C)C[C@H]2C[C@H]3C[C@@H]2C[C@@H]3O)CC(=O)[C@H](C)/C=C(\C)[C@@H](O)[C@@H](OC)C(=O)[C@H](C)C[C@H](C)/C=C/C=C/C=C/1C [Formula II, C37-[(1R,2S,4R,5S)-5-hyhroxybicyclo[2.2.1]heptane] rapamycin]
Cell Count Activity Area (SW684): 2.97 | Relative cell count (%) Mean (SW684; 1.00E+00 microM): 49.0% | Relative cell count (%) Mean (SW684; 1.00E-01 microM): 55.6% | Relative cell count (%) Mean (SW684; 1.00E-02 microM): 71.4% | Relative cell count (%) Mean (SW684; 1.00E-03 microM): 85.1% | Relative cell count (%) Mean (SW684; 1.01E-04 microM): 94.1% | Relative cell count (%) Mean (SW684; 3.16E-01 microM): 52.4% | Relative cell count (%) Mean (SW684; 3.17E-02 microM): 63.3% | Relative cell count (%) Mean (SW684; 3.17E-03 microM): 71.8% | Relative cell count (%) Mean (SW684; 3.18E-04 microM): 86.4% | Relative cell count (%) Mean (SW684; 3.18E-05 microM): 99.5% | EC50 (SW684; [1]): 4.57 nM | GI50 (SW684; [2]): 2.19 nM | IC50 (SW684; [3]): 370 nM | Cell Count Activity Area (MES-SA): 4.81 | Relative cell count (%) Mean (MES-SA; 1.00E+00 microM): 26.6% | Relative cell count (%) Mean (MES-SA; 1.00E-01 microM): 31.4% | Relative cell count (%) Mean (MES-SA; 1.00E-02 microM): 43.5% | Relative cell count (%) Mean (MES-SA; 1.00E-03 microM): 71.1% | Relative cell count (%) Mean (MES-SA; 1.01E-04 microM): 107.7% | Relative cell count (%) Mean (MES-SA; 3.16E-01 microM): 26.5% | Relative cell count (%) Mean (MES-SA; 3.17E-02 microM): 35.6% | Relative cell count (%) Mean (MES-SA; 3.17E-03 microM): 53.2% | Relative cell count (%) Mean (MES-SA; 3.18E-04 microM): 90.9% | Relative cell count (%) Mean (MES-SA; 3.18E-05 microM): 105.0% | EC50 (MES-SA; [1]): 1.17 nM | GI50 (MES-SA; [2]): 1.96 nM | IC50 (MES-SA; [3]): 2.74 nM | Cell Count Activity Area (SK-N-AS): 3.12 | Relative cell count (%) Mean (SK-N-AS; 1.00E+00 microM): 49.7% | Relative cell count (%) Mean (SK-N-AS; 1.00E-01 microM): 54.0% | Relative cell count (%) Mean (SK-N-AS; 1.00E-02 microM): 55.3% | Relative cell count (%) Mean (SK-N-AS; 1.00E-03 microM): 77.8% | Relative cell count (%) Mean (SK-N-AS; 1.01E-04 microM): 99.5% | Relative cell count (%) Mean (SK-N-AS; 3.16E-01 microM): 49.5% | Relative cell count (%) Mean (SK-N-AS; 3.17E-02 microM): 55.1% | Relative cell count (%) Mean (SK-N-AS; 3.17E-03 microM): 70.3% | Relative cell count (%) Mean (SK-N-AS; 3.18E-04 microM): 89.7% | Relative cell count (%) Mean (SK-N-AS; 3.18E-05 microM): 97.7% | EC50 (SK-N-AS; [1]): 1.41 nM | GI50 (SK-N-AS; [2]): 4.82 nM | IC50 (SK-N-AS; [3]): 422 nM | EC50 (OVCAR3; Homo sapiens): 43 nM | EC50 (OVCAR3; Homo sapiens, OVCAR-3, read-out: Cell Count EC50): 42.6 nM | GI50 (OVCAR3; Homo sapiens, OVCAR-3, read-out: Cell Count GI50): 301 nM | IC50 (OVCAR3; Homo sapiens, OVCAR-3, read-out: Cell Count IC50): > 1000 nM | Cell Count Activity Area (OVCAR3; OVCAR3): 1.09 | Relative cell count (%) Mean (OVCAR3; OVCAR3, 1.00E+00 microM): 70.8% | Relative cell count (%) Mean (OVCAR3; OVCAR3, 1.00E-01 microM): 79.0% | Relative cell count (%) Mean (OVCAR3; OVCAR3, 1.00E-02 microM): 104.2% | Relative cell count (%) Mean (OVCAR3; OVCAR3, 1.00E-03 microM): 101.9% | Relative cell count (%) Mean (OVCAR3; OVCAR3, 1.01E-04 microM): 116.6% | Relative cell count (%) Mean (OVCAR3; OVCAR3, 3.16E-01 microM): 69.1% | Relative cell count (%) Mean (OVCAR3; OVCAR3, 3.17E-02 microM): 88.4% | Relative cell count (%) Mean (OVCAR3; OVCAR3, 3.17E-03 microM): 98.5% | Relative cell count (%) Mean (OVCAR3; OVCAR3, 3.18E-04 microM): 100.4% | Relative cell count (%) Mean (OVCAR3; OVCAR3, 3.18E-05 microM): 99.9% | Cell Count Activity Area (RL95-2): 3.36 | Relative cell count (%) Mean (RL95-2; 1.00E+00 microM): 48.1% | Relative cell count (%) Mean (RL95-2; 1.00E-01 microM): 51.9% | Relative cell count (%) Mean (RL95-2; 1.00E-02 microM): 61.8% | Relative cell count (%) Mean (RL95-2; 1.00E-03 microM): 69.2% | Relative cell count (%) Mean (RL95-2; 1.01E-04 microM): 91.3% | Relative cell count (%) Mean (RL95-2; 3.16E-01 microM): 51.5% | Relative cell count (%) Mean (RL95-2; 3.17E-02 microM): 53.8% | Relative cell count (%) Mean (RL95-2; 3.17E-03 microM): 62.6% | Relative cell count (%) Mean (RL95-2; 3.18E-04 microM): 78.8% | Relative cell count (%) Mean (RL95-2; 3.18E-05 microM): 95.1% | EC50 (RL95-2; [1]): 0.645 nM | GI50 (RL95-2; [2]): 1.18 nM | IC50 (RL95-2; [3]): > 1000 nM | Cell Count Activity Area (CEM-C1): 3.13 | Relative cell count (%) Mean (CEM-C1; 1.00E+00 microM): 51.5% | Relative cell count (%) Mean (CEM-C1; 1.00E-01 microM): 56.2% | Relative cell count (%) Mean (CEM-C1; 1.00E-02 microM): 66.8% | Relative cell count (%) Mean (CEM-C1; 1.00E-03 microM): 82.0% | Relative cell count (%) Mean (CEM-C1; 1.01E-04 microM): 98.1% | Relative cell count (%) Mean (CEM-C1; 3.16E-01 microM): 52.4% | Relative cell count (%) Mean (CEM-C1; 3.17E-02 microM): 58.8% | Relative cell count (%) Mean (CEM-C1; 3.17E-03 microM): 73.0% | Relative cell count (%) Mean (CEM-C1; 3.18E-04 microM): 92.1% | Relative cell count (%) Mean (CEM-C1; 3.18E-05 microM): 100.6% | EC50 (CEM-C1; [1]): 1.8 nM | GI50 (CEM-C1; [2]): 32.5 nM | IC50 (CEM-C1; [3]): 265 nM
